The source of these data is ChEMBL document CHEMBL1130742, “Inhibition of thermolysin with nitrone-bearing substrate analogs: a new type of thermolysin inhibitors” (Bioorg Med Chem Lett, 1998).

The Ki is a measure of affinity in units of concentration, obtained from inhibition or displacement. The low end stands for a stronger hold on the target, the high end for a looser hold on the target.

This assay addresses T1, Thermolysin (Bacillus thermoproteolyticus, UniProt P00800).
T1 sequence (P00800 whole entry): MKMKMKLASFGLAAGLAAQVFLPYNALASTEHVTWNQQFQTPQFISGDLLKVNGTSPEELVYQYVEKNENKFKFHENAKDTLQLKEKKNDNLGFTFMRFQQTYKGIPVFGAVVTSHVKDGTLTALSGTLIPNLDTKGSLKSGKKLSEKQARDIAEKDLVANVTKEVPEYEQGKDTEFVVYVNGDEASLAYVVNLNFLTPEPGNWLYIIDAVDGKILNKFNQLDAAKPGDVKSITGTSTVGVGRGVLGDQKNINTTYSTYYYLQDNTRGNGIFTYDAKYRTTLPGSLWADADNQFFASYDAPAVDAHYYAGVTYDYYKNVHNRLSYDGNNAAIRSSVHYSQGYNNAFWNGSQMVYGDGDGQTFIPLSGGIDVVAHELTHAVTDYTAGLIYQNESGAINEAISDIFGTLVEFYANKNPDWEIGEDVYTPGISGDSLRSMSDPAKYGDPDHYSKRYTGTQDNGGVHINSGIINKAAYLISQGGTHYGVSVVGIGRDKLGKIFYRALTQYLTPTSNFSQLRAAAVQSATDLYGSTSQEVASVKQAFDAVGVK
The experiment in a line: Inhibitory activity against thermolysin using 2-furylacryloyl-Gly-Leu-NH2 as substrate at pH 7.2.

In turn, `COC(=O)C(Cc1ccccc1)/[N+]([O-])=C/c1ccccc1` (stereo not drawn) displayed a Ki of 1910 µM.
To `NC(=O)C(/C=[N+](\[O-])Cc1ccccc1)Cc1ccccc1` (stereo not drawn) belongs 40 µM; to `NC(=O)C(Cc1ccccc1)/[N+]([O-])=C/c1ccccc1` (stereo not drawn), 774 µM; to `COC(=O)C(Cc1ccccc1)C/[N+]([O-])=C/c1ccccc1` (stereo not drawn), 244 µM.
Compound `O=CN(O)CC(Cc1ccccc1)C(=O)NCC(=O)O` (stereo not drawn) yielded a Ki of 34 µM. Against the preceding compound, the Ki is about 7.2-fold lower.
Take `O=C(O)CNC(=O)C(CC(=O)O)Cc1ccccc1` (stereo not drawn): the affinity corresponds to a Ki of 340 µM.
To `O=C(O)CNC(=O)C(/C=[N+](\[O-])Cc1ccccc1)Cc1ccccc1` (stereo not drawn) belongs 54 µM.
To `COC(=O)C(/C=[N+](\[O-])Cc1ccccc1)Cc1ccccc1` (stereo not drawn) belongs 82 µM.
